The results in this text go back to patent US6627732B1, “Glutathione derivatives and their dosage forms” (Teijin Limited, priority 1998, dated 2003).

Series [1] concerns swine liver esterase. Briefly: Decomposition of glutathione derivatives by swine liver esterase (physiological stability). In kind it is in vitro ADME. The note with it: BSA/D-PBS pH 7.4, 196-244 μg/ml. The protocol:
(1) Bovine serum albumin (hereinafter referred to as BSA), Dulbecco's phosphate buffered saline (hereinafter referred to as D-PBS), swine liver esterase, and rabbit liver esterase were purchased from Sigma, 6-week old male SD rats were purchased from Nippon SLC, and 12-week old or older male Japanese white rabbits were purchased from Ichikawaya. On the day of the incubation experiment described below, blood was drawn from the animals in the presence of heparin, and plasma was separated therefrom for use. Human plasma was obtained from normal healthy males after obtaining their consent.
(2) The glutathione derivatives described in the Examples and Comparative Examples of the present invention were incubated for a fixed time in an enzyme solution having the following composition. Acetonitrile was added to the reaction mixture to inactivate the enzyme thereby to stop the reaction. The concentration of the glutathione derivatives in the deproteinized supernatant was measured by HPLC. For each time point of the esterase enzyme experiment, the mean values from two measurement or more were determined, and for the rats and rabbits the mean values of plasma samples from three individuals were determined. For some of the experiment data, changes with time of percentages relative to initial concentration of the glutathione derivative are shown in FIGS. 2 to 4.
Swine liver esterase and rabbit liver esterase experiment
30 mg-BSA/ml-D-PBS (pH 7.4): 36 to 45 parts
Swine or rabbit liver esterase/D-PBS: 4-5 parts
10 mg-glutathione derivative/ml-ethanol: one part (the final concentration in the reaction mixture is 196-244 μg/ml)

Series [2] in a line: Pharmacokinetics after intravenous administration to rabbits, 2-compartment model (Example 25). The format is in vivo, rabbit. As to conditions: iv auricular vein 2 ml/kg, fat emulsion (Comparative Ex. 1: HPCD/glucose solution). The source says: For the glutathione derivative of the present invention having a long-chain ester having 12 carbons or more and the glutathione derivatives of the conventional technology of Comparative Examples 1 and 2, kinetics in the blood were compared in rabbits that are a species having allow esterase activity in the blood.
(1) Male Japanese white rabbits, 12-week old or older, were purchased from Ichikawaya, and those rabbits that became 15-week old or older and whose body weight reached about 3 kg were used for the experiment. During the period up to the experiment, the animals were allowed free access to the animal feed and drinking water and were kept at a temperature of 24±2° C. and a humidity of 55±5%.
(2) The glutathione derivative having a long-chain ester of 12 carbons or more and the glutathione derivative of Comparative Example 2 were prepared at 20-200 mg/ml in a mixture of ethanol or ethanol:benzyl alcohol, which was mixed with the fat emulsion just prior to use, and was filtered with a 1.2 μm filter to obtain a liquid for intravenous administration. On the other hand, the glutathione derivative of Comparative Example 1 was dissolved in an aqueous solution of 6%-hydroxypropyl-β-cyclodextrin/5%-glucose at 15 mg/ml to obtain an administration liquid.
(3) The administration liquid of the glutathione derivative obtained in (2) at a dose of 2 ml/kg was rapidly infused into the left auricular vein of the rabbits under no anesthesia and under restraint at a rate of 1 ml/min. Each glutathione derivative was given to three or more rabbits. At 5, 10, 15, 30, 60, 120, and 240 minutes after the completion of the administration, 1 ml of the blood was drawn from the right auricular vein in the presence of heparin, which was immediately cooled on ice. Plasma was obtained by centrifuging the blood, 1-2 volume parts of acetonitrile was added to deproteinize the supernatant, which was filtered by a 0.5 μm filter. The supernatant of the filtrate was quantitated by HPLC.

The subject of series [3] is swine liver esterase. The series is described as follows: Decomposition by swine liver esterase with and without fat emulsion (Example 22). As to conditions: for Decomposition rate constant in the absence of the fat emulsion: alcohol solution with physiological saline; for Decomposition rate constant in the presence of the fat emulsion: fat emulsion added at 15 (v/v)%. In kind it is in vitro ADME. As to the method: The glutathione derivative combined with a fat emulsion was incubated with swine liver esterase to compare the resistance to decomposition.
Thereupon, the concentration of the glutathione derivatives of Comparative Examples 1 and 2 in the fat emulsion were each adjusted to 1 mg/ml.
After incubation for a fixed time in a similar manner to that in Example 19, the content of the glutathione derivative was quantitated by HPLC. As the control experiment, an alcohol solution of the glutathione derivative of Example 4, Comparative Example 1 or 2 was added to the esterase reaction mixture together with physiological saline for adjustment of the total volume, and incubated similarly and analyzed by HPLC.
(3) Since a linear disappearance curve was observed as in Example 19, each decomposition rate constant was determined and was compared, which was summarized in Table 6.

As for `CCCCCCCCCCCCCCCCOC(=O)[C@@H](N)CCC(=O)N[C@@H](CSCc1ccccc1)C(=O)N[C@@H](C(=O)OCC)c1ccccc1.Cl` [Example 4, Glu(Cys(Bzl)-D-Phg-OEt)-O(Hexadecyl)hydrochloride], the “Decomposition rate constant by swine liver esterase” value in the series with swine liver esterase [1] is 0.466 10^−4/unit/min. In series [2], the “Clearance per body weight” value is 3.33 mL/min/kg and the “Distribution volume per body weight of the central compartment” value (from here on “Distribution volume per body weight”) is recorded as 0.06 L/kg. Moreover, in the series with swine liver esterase [3], the “Ratio of decomposition rate constant (in the presence of the fat emulsion/physiological saline)” value came out at 0.185, the “Decomposition rate constant in the absence of the fat emulsion” value was 1.100 × 10^−4 /unit/min and the “Decomposition rate constant in the presence of the fat emulsion” value is reported as 2.033 × 10^−5 /unit/min.
As to `CCOC(=O)[C@@H](N)CCC(=O)N[C@@H](CSCc1ccccc1)C(=O)N[C@@H](C(=O)OCC)c1ccccc1.Cl` [Comparative Example 1, Glu(Cys(Bzl)-D-Phg-O(Et))-O(Et)hydrochloride, reference compound], the “Decomposition rate constant by swine liver esterase” value in the series on swine liver esterase [1] is recorded as 121 10^−4/unit/min. In addition, in series [2], the “Clearance per body weight” value is 254.5 mL/min/kg and the “Distribution volume per body weight” value is 0.80 L/kg. In the series with swine liver esterase [3], the “Ratio of decomposition rate constant (in the presence of the fat emulsion/physiological saline)” value was 0.609, the “Decomposition rate constant in the absence of the fat emulsion” value is 1.206 × 10^−2 /unit/min and the “Decomposition rate constant in the presence of the fat emulsion” value is 7.343 × 10^−3 /unit/min.
Regarding `CCCCCCCCOC(=O)[C@H](NC(=O)[C@H](CSCc1ccccc1)NC(=O)CC[C@H](N)C(=O)OCC)c1ccccc1.Cl` [Comparative Example 2, Glu(Cys(Bzl)-D-Phg-O(Octyl))-O(Et)hydrochloride, reference compound], the “Decomposition rate constant by swine liver esterase” value with swine liver esterase [1] was 364 10^−4/unit/min. In addition, in series [2], the “Clearance per body weight” value came out at 156 mL/min/kg and the “Distribution volume per body weight” value came to 4.18 L/kg. Also, in the series with swine liver esterase [3], the “Ratio of decomposition rate constant (in the presence of the fat emulsion/physiological saline)” value turned out to be 0.454, the “Decomposition rate constant in the absence of the fat emulsion” value is reported as 3.638 × 10^−2 /unit/min and the “Decomposition rate constant in the presence of the fat emulsion” value is recorded as 1.650 × 10^−2 /unit/min.
